Assay results taken from ChEMBL document CHEMBL1687830, “Evaluation of ceftazidime and NXL104 in two murine models of infection due to KPC-producing Klebsiella pneumoniae” (2011).
Values after ≈ are worked out from the molar mass of the structure shown.

How the values were obtained:
Format in all cases: functional
Klebsiella pneumoniae [1] = experiment: Antimicrobial activity against carbapenemases KPC-producing Klebsiella pneumoniae VA-361 infected in sc dosed CD-1 mouse in presence of 4 ug/ml Tazobactam beta-lactamase inhibitor
Klebsiella pneumoniae [2] = experiment: Antimicrobial activity against carbapenemases KPC-producing Klebsiella pneumoniae VA-361 infected in sc dosed CD-1 mouse in presence of 4 ug/ml cavulanate beta-lactamase inhibitor
Klebsiella pneumoniae [3] = experiment: Antimicrobial activity against carbapenemases KPC-producing Klebsiella pneumoniae VA-361 infected in sc dosed CD-1 mouse
Klebsiella pneumoniae [4] = experiment: Antimicrobial activity against carbapenemases KPC-producing Klebsiella pneumoniae VA-406 infected in sc dosed CD-1 mouse in presence of 4 ug/ml Tazobactam beta-lactamase inhibitor
Klebsiella pneumoniae [5] = experiment: Antimicrobial activity against carbapenemases KPC-producing Klebsiella pneumoniae VA-406 infected in sc dosed CD-1 mouse in presence of 4 ug/ml cavulanate beta-lactamase inhibitor
Klebsiella pneumoniae [6] = experiment: Antimicrobial activity against carbapenemases KPC-producing Klebsiella pneumoniae VA-406 infected in sc dosed CD-1 mouse
Klebsiella pneumoniae [7] = experiment: Antimicrobial activity against carbapenemases KPC-producing Klebsiella pneumoniae VA-361 infected in sc dosed CD-1 mouse in presence of 1 ug/ml NXL104 beta-lactamase inhibitor
Klebsiella pneumoniae [8] = experiment: Antimicrobial activity against carbapenemases KPC-producing Klebsiella pneumoniae VA-361 infected in sc dosed CD-1 mouse in presence of 2 ug/ml NXL104 beta-lactamase inhibitor
Klebsiella pneumoniae [9] = experiment: Antimicrobial activity against carbapenemases KPC-producing Klebsiella pneumoniae VA-361 infected in sc dosed CD-1 mouse in presence of 4 ug/ml NXL104 beta-lactamase inhibitor
Klebsiella pneumoniae [10] = experiment: Antimicrobial activity against carbapenemases KPC-producing Klebsiella pneumoniae VA-406 infected in sc dosed CD-1 mouse in presence of 1 ug/ml NXL104 beta-lactamase inhibitor
Klebsiella pneumoniae [11] = experiment: Antimicrobial activity against carbapenemases KPC-producing Klebsiella pneumoniae VA-406 infected in sc dosed CD-1 mouse in presence of 2 ug/ml NXL104 beta-lactamase inhibitor
Klebsiella pneumoniae [12] = experiment: Antimicrobial activity against carbapenemases KPC-producing Klebsiella pneumoniae VA-406 infected in sc dosed CD-1 mouse in presence of 4 ug/ml NXL104 beta-lactamase inhibitor
Klebsiella pneumoniae [13] = experiment: (§1) Antimicrobial activity against carbapenemases KPC-producing Klebsiella pneumoniae VA-361 infected in CD-1 mouse thigh infection model assessed as change in log10 CFU reduction per thigh treated 1.5 hr post infection at >=1024:256 mg/kg, sc compound to NXL104 beta-lactamase inhibitor ratio after 24 hrs by acute lethal septicemia analysis (reference value: 8.93 log10CFU/thigh)
Klebsiella pneumoniae [14] = experiment: as §1, with “VA-406” for “VA-361”, “>=8:2” for “>=1024:256”, “8.67” for “8.93”
Klebsiella pneumoniae [15] = experiment: as §1, with “2048” for “>=1024:256”, “sc” for “sc compound to NXL104 beta-lactamase inhibitor ratio”; conditions: route subcutaneous
Klebsiella pneumoniae [16] = experiment: as §1, with “VA-406” for “VA-361”, “2048” for “>=1024:256”, “sc” for “sc compound to NXL104 beta-lactamase inhibitor ratio”, “8.67” for “8.93”; conditions: route subcutaneous
Klebsiella pneumoniae [17] = experiment: as §1, with “1024” for “>=1024:256”, “sc” for “sc compound to NXL104 beta-lactamase inhibitor ratio”; conditions: route subcutaneous
Klebsiella pneumoniae [18] = experiment: as §1, with “VA-406” for “VA-361”, “1024” for “>=1024:256”, “sc” for “sc compound to NXL104 beta-lactamase inhibitor ratio”, “8.67” for “8.93”; conditions: route subcutaneous

SMILES | MIC (Klebsiella pneumoniae [1]) | MIC (Klebsiella pneumoniae [2]) | MIC (Klebsiella pneumoniae [3]) | MIC (Klebsiella pneumoniae [4]) | MIC (Klebsiella pneumoniae [5]) | MIC (Klebsiella pneumoniae [6]) | MIC (Klebsiella pneumoniae [7]) | MIC (Klebsiella pneumoniae [8]) | MIC (Klebsiella pneumoniae [9]) | MIC (Klebsiella pneumoniae [10]) | MIC (Klebsiella pneumoniae [11]) | MIC (Klebsiella pneumoniae [12]) | log10cfu (Klebsiella pneumoniae [13]) | log10cfu (Klebsiella pneumoniae [14]) | log10cfu (Klebsiella pneumoniae [15]) | log10cfu (Klebsiella pneumoniae [16]) | log10cfu (Klebsiella pneumoniae [17]) | log10cfu (Klebsiella pneumoniae [18])
C[C@@H](O)[C@H]1C(=O)N2C(C(=O)O)=C(SCCNC=N)C[C@H]12 [IMIPENEM ANHYDROUS] | 4 µg/mL | 2 µg/mL | 4 µg/mL (≈ 13.4 µM) | 256 µg/mL | 128 µg/mL | 256 µg/mL (≈ 855 µM) | – | – | – | – | – | – | – | – | – | – | – | –
C[C@@H](O)[C@H]1C(=O)N2C(C(=O)O)=C(S[C@@H]3CN[C@H](C(=O)N(C)C)C3)[C@H](C)[C@H]12 [MEROPENEM] | 4 µg/mL | 2 µg/mL | 4 µg/mL (≈ 10.4 µM) | 128 µg/mL | 128 µg/mL | 256 µg/mL (≈ 668 µM) | – | – | – | – | – | – | – | – | – | – | – | –
CCN1CCN(C(=O)N[C@@H](C(=O)N[C@@H]2C(=O)N3[C@@H]2SC(C)(C)[C@@H]3C(=O)O)c2ccccc2)C(=O)C1=O [PIPERACILLIN] | ≥ 512 µg/mL | – | ≥ 512 µg/mL | ≥ 512 µg/mL | – | ≥ 512 µg/mL | 32 µg/mL | 8 µg/mL | ≤ 0.06 µg/mL | 16 µg/mL | 8 µg/mL | 0.5 µg/mL | -1.76 | 2.93 | -0.34 | 0.03 | -0.32 | 0.25
